Key:
[1] = The compound was tested In Vitro for half life in human liver microsomes.; format: ADME, Microsome
D(4) dopamine receptor = target: T1, D(4) dopamine receptor (Homo sapiens, UniProt P21917); experiment: biochemical
T1 sequence (P21917 whole entry): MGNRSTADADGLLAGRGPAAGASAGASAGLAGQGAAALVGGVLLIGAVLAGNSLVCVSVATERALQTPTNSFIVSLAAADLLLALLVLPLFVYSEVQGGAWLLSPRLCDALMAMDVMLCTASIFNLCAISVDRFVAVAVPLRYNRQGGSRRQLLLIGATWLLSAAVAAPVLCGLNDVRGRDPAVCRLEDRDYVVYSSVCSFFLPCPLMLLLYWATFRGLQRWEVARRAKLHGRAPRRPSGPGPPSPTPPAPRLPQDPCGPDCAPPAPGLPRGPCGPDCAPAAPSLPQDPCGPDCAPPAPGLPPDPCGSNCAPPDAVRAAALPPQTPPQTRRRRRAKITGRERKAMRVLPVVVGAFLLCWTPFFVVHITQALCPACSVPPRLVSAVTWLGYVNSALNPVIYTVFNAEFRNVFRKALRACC
Description: In vitro binding affinity at human D4 dopamine receptor in CHO cells by [3H]spiperone displacement.

[2] = target: T2, 5-hydroxytryptamine receptor 1A (Mus musculus, UniProt Q64264); experiment: In vitro binding affinity against 5-hydroxytryptamine 1A receptor in CHO cells; format: cell-based
T2 sequence (Q64264 whole entry): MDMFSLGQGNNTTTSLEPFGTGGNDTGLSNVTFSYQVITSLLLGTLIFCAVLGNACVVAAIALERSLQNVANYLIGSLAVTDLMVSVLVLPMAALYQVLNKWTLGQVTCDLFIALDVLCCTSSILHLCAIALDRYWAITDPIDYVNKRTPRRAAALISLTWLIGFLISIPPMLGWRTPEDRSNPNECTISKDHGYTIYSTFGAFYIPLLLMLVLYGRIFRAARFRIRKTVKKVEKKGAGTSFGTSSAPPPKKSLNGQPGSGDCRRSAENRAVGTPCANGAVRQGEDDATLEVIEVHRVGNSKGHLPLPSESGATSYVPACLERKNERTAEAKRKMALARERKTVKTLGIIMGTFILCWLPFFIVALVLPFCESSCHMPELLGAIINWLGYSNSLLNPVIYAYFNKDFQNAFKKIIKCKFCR

[3] = target: 5-hydroxytryptamine receptor 2A (Homo sapiens, UniProt P28223); experiment: In vitro binding affinity against 5-hydroxytryptamine 2A receptor in CHO cells; format: cell-based
Sequence of 5-hydroxytryptamine receptor 2A (P28223 whole entry): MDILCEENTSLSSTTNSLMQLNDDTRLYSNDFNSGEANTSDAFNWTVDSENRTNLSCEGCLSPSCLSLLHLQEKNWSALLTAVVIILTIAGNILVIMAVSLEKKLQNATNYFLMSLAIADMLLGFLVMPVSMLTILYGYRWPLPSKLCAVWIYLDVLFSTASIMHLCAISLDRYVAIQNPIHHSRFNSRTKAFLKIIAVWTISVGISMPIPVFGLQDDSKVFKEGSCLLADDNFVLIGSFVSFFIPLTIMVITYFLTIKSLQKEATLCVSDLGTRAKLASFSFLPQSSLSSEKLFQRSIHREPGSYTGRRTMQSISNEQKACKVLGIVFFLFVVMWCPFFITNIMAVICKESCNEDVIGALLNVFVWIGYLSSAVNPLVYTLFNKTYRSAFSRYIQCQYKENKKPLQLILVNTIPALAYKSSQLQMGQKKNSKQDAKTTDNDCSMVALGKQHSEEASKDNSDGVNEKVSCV

[4] = In vivo maximum concentration of compound in rat plasma after a oral dose of 10 mg/kg (in water, N=4); format: ADME, organism-based; parameters: dose 10 mg/kg, route oral
[5] = In vivo percentage mean absolute bioavailability of compound in rat after an oral dose of 10 mg/kg (in water, N=4); format: ADME, organism-based
D(3) dopamine receptor = D(3) dopamine receptor (Homo sapiens, UniProt P35462); experiment: In vitro binding affinity against human D3 dopamine receptor in CHO cells using [3H]spiperone; format: cell-based
Sequence of D(3) dopamine receptor (P35462 whole entry): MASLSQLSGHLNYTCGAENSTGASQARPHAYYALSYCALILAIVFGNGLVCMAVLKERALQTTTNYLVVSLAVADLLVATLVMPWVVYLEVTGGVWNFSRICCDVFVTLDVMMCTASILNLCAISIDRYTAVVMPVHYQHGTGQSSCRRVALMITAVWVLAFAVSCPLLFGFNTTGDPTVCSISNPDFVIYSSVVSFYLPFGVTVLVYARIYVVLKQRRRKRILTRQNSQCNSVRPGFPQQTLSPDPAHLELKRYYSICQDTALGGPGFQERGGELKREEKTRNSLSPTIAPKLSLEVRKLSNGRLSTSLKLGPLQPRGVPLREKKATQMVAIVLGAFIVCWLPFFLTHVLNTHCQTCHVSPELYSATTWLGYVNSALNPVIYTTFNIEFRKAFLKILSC

Rattus norvegicus [6] = experiment: in vivo for inhibition against hyperactivity induced by apomorphine (1.78 mg/kg) in habituated rats by subcutaneous administration; format: functional; conditions: sc, read-out: ID50 (the source's name)
Rattus norvegicus [7] = experiment: in vivo for inhibition against hyperactivity induced by apomorphine (1.78 mg/kg) in habituated rats by oral administration; format: functional; conditions: read-out: ID50 (the source's name)
Rattus norvegicus [8] = experiment: Compound was tested for antagonistic activity against APO-induced stereotypy in rats when administered po; format: functional; conditions: read-out: ID50 (the source's name)
Rattus norvegicus [9] = experiment: Compound was tested for inhibition of APO-induced blockade of prepulse inhibition in rats when administered sc; format: functional; conditions: read-out: ID50 (the source's name)
Rattus norvegicus [10] = experiment: Compound was tested for spontaneous locomotor activity in nonhabituated rats when administered po; format: functional; conditions: read-out: ID50 (the source's name)
[11] = In vivo half life of compound in rat plasma after a oral dose of 10 mg/kg (in water, N=4); format: ADME, organism-based; parameters: dose 10 mg/kg, route oral

Structure (SMILES) | Ki (D(4) dopamine receptor) [nM] | also measured
Fc1ccc(OC[C@@H]2CC[C@H]3CN(c4ccc(Cl)cn4)CCN3C2)cc1 | 3.2 | –
c1ccc(OCC2CCC3CN(c4ncccn4)CCN3C2)cc1 (stereo unspecified) | 3.8 | –
Fc1ccc(OC[C@H]2CC[C@@H]3CN(c4ncc(F)cn4)CCN3C2)cc1 | 106 | –
Fc1ccc(OC[C@H]2CC[C@H]3CN(c4ncc(F)cn4)CCN3C2)cc1 | 2 | –
c1ccc(OC[C@@H]2CC[C@H]3CN(c4ncccn4)CCN3C2)cc1 | 3.5 | half-life [1]: 3 min
Fc1ccc(OC[C@@H]2CC[C@H]3CN(c4ccc(F)cc4)CCN3C2)cc1 | 5.3 | –
c1ccc(OC[C@@H]2CC[C@H]3CN(c4ccccn4)CCN3C2)cc1 | 1.7 | –
c1ccc(OC[C@@H]2CC[C@H]3CN(c4ccccc4)CCN3C2)cc1 | 1.6 | –
c1ccc(OC[C@H]2CC[C@H]3CN(c4ncccn4)CCN3C2)cc1 (stereo in doubt; 3a) | 4.1 | –
c1ccc(OC[C@H]2CC[C@H]3CN(c4ncccn4)CCN3C2)cc1 (stereo in doubt; 3b) | 1.7 | –

More lines, main results first:

Ki (D(4) dopamine receptor) [nM] | Structure (SMILES) | also measured
2.8 | Fc1ccc(OC[C@@H]2CC[C@H]3CN(c4ncccn4)CCN3C2)cc1 | half-life [1]: 3.6 min
316 | CC(=O)Nc1ccc(OC[C@@H]2CC[C@H]3CN(c4ncccn4)CCN3C2)cc1 | –
127 | COC(=O)c1ccc(OC[C@@H]2CC[C@H]3CN(c4ncccn4)CCN3C2)cc1 | –
39 | Fc1ccc(OC[C@@H]2CC[C@@H]3CN(c4ncc(F)cn4)CCN3C2)cc1 | –
20 | CC(C)(C)c1ccc(OC[C@@H]2CC[C@H]3CN(c4ncccn4)CCN3C2)cc1 | –
18 | COc1ccc(OC[C@@H]2CC[C@H]3CN(c4ncccn4)CCN3C2)cc1 | –
3.4 | Fc1ccc(OC[C@@H]2CC[C@H]3CN(c4ncc(F)cn4)CCN3C2)cc1 | IC50 [2]: 180 nM; IC50 [3]: 150 nM; Cmax [4]: 730 ng/mL; half-life [1]: 12.2 min; bioavailability [5]: 93%; Ki (D(3) dopamine receptor): > 2000 nM; ED50 (Rattus norvegicus [6]): 10 mg/kg; ED50 (Rattus norvegicus [7]): 13.3 mg/kg; ED50 (Rattus norvegicus [8]): > 56 mg/kg; ED50 (Rattus norvegicus [9]): 17.8 mg/kg; ED50 (Rattus norvegicus [10]): > 56 mg/kg; half-life [11]: 270 min

From ChEMBL document CHEMBL1131659, “Synthesis, SAR and pharmacology of CP-293,019: a potent, selective dopamine D4 receptor antagonist” (Bioorg Med Chem Lett, 1998)
